Laboratory results from ChEMBL document CHEMBL1201862, “PubChem BioAssay data set” (2004).
Active and inactive are the calls of the source.

Tests used:
[1] = target: T1, Beta-adrenergic receptor kinase 1 (Homo sapiens, UniProt P25098); assay: aptamer displacement from bead-bound GRK2 – biochemical, cherry pick 1, bead flow cytometry, dose response (AID 504500)
[2] = target: T2, Carboxy-terminal domain RNA polymerase II polypeptide A small phosphatase 1 (Homo sapiens, UniProt Q9GZU7); assay: CTDSP1 inhibitors, concentration-response, biochemical, absorbance readout, ultra-high-throughput screen actives (AID 540297); type: functional
T2 sequence (Q9GZU7 whole entry): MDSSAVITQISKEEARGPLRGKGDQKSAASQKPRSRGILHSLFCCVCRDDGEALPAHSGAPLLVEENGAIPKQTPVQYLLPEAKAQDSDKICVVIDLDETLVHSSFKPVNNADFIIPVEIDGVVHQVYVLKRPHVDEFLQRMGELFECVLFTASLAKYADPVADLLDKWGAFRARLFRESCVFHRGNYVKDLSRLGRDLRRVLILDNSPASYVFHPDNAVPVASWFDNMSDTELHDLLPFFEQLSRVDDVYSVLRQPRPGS

[3] = target: T1, Beta-adrenergic receptor kinase 1; assay: Second cherry pick EC50 of compounds blocking aptamer binding to bead-bound GRK2 by flow cytometry, biochemical (AID 504815)
[4] = target: T3, Sphingosine 1-phosphate receptor 4 (Homo sapiens, UniProt O95977); assay: Fluorescence dose response cell-based high throughput screening assay for antagonists of the Sphingosine 1-Phosphate Receptor 4 (S1P4). [Related pubchem assays: 1524 (Confirmation in triplicates.), 1510 (Primary screen.)]; type: functional
T3 sequence (O95977 whole entry): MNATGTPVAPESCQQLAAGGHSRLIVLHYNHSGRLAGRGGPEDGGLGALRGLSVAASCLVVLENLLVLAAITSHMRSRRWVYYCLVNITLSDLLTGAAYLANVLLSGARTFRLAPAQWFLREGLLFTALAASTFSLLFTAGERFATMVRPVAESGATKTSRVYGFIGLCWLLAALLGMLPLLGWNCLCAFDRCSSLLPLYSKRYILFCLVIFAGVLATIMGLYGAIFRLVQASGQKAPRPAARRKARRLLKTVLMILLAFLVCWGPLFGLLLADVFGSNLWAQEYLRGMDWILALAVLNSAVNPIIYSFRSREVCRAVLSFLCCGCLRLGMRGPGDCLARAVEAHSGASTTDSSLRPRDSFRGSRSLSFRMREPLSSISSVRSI

HEK293 [5] = assay: SAR Analysis of small molecule inhibitors of T-cell specific antigen receptor-induced NF-kB activation in a HEK-293T cell line using a luminescence assay - Set 2. [Related pubchem assays (depositor defined):AID435003, AID435012, AID489026]; type: functional, cell-based; conditions: Homo sapiens
Steroidogenic factor 1 = Steroidogenic factor 1 (Homo sapiens, UniProt Q13285); assay: Counterscreen for inverse agonists of the liver receptor homolog-1 (LRH-1; NR5A2): Luminescence-based cell-based high throughput dose response assay to identify inverse agonists of the Steroidogenic Factor 1 Nuclear Receptor (SF1; NR5A1).; type: functional
Sequence of Steroidogenic factor 1 (Q13285 whole entry): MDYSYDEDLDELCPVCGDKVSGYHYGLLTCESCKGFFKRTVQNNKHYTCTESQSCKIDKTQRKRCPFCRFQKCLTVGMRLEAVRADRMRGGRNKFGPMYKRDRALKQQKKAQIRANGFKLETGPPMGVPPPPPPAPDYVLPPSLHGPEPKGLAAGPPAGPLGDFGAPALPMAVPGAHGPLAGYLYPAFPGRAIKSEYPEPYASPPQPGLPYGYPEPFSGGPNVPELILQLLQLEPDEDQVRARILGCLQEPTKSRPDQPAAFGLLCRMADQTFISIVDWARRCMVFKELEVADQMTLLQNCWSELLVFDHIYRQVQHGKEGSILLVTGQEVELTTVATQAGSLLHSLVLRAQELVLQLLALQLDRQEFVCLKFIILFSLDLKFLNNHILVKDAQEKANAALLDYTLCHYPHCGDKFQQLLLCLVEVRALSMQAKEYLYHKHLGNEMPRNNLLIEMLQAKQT

[6] = NIH-3T3 fibroblast cytotoxicity, dose response, cytotoxicity control, cell-based, fluorescence, Alamar Blue, secondary assay (AID 2327); type: functional;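 note: NIH-3T3 mouse fibroblasts cultured with fluconazole at 8 µg/mL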
Jurkat = assay: SAR Analysis of small molecule inhibitors of T-cell specific antigen receptor-induced NF-kB activation in a Jurkat cell line using a luminescence assay - Set 2. [Related pubchem assays (depositor defined):AID435003, AID435012, AID465]; type: functional, cell-based; conditions: Homo sapiens
[7] = target: T4, Microphthalmia-associated transcription factor (Homo sapiens, UniProt O75030); assay: reducers of TRPM1 reporter luminescence, concentration series – cell-based, SK-MEL-5, cherry-picked, set 3, MITF inhibitor project, dose response (AID 493073); type: functional;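 note: SK-MEL-5 melanoma cells with luciferase driven by the MITF target TRPM1 promoter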
T4 sequence (O75030 whole entry): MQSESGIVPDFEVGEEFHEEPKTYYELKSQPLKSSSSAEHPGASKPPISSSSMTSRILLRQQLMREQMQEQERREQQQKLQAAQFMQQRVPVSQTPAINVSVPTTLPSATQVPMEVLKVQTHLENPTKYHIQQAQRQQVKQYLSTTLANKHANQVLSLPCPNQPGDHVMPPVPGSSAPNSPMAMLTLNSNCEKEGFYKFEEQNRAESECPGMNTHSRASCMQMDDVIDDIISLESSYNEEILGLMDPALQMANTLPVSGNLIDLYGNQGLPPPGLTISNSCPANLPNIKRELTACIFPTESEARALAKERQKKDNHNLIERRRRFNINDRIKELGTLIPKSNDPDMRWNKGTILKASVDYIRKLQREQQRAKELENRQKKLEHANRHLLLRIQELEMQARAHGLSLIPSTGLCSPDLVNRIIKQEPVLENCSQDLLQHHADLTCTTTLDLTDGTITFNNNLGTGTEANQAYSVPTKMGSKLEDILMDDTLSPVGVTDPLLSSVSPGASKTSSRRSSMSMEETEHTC

[8] = target: Sphingosine 1-phosphate receptor 1 (Homo sapiens, UniProt P21453); type: functional;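 note: Tango beta-arrestin reporter U2OS cells stimulated with S1P near its EC80; inhibitor potency meaning antagonism of receptor activation by the natural agonist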
Sequence of Sphingosine 1-phosphate receptor 1 (P21453 whole entry): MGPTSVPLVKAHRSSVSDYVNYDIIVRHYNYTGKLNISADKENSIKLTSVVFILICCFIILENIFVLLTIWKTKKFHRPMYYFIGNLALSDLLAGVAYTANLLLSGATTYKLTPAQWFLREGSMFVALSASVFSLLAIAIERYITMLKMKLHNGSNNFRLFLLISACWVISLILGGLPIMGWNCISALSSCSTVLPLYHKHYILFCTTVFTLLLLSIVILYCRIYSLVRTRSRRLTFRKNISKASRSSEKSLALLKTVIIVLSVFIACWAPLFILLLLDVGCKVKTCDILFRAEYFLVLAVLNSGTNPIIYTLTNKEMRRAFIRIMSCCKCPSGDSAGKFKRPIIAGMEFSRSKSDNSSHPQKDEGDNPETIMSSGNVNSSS

[9] = Counterscreen for activators of the function of SWI/SNF related, matrix associated, actin dependent regulator of chromatin, subfamily a, member 2 (SMARCA2, BRM): Luminescence-based cell-based high throughput dose response assay to identify non-selective compounds using the VP16 reporter assay.; type: functional
Paired box protein Pax-8 = Paired box protein Pax-8 (Homo sapiens, UniProt Q06710); assay: PAX8 transcriptional activity inhibition in RMG-I – RMG-I cells, luciferase, cherry-pick, dose response (AID 687027); type: functional, cell-based;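 note: luciferase reporter driven by Pax8 target thyroperoxidase promoter measured by SteadyGlo luminescence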
Sequence of Paired box protein Pax-8 (Q06710 whole entry): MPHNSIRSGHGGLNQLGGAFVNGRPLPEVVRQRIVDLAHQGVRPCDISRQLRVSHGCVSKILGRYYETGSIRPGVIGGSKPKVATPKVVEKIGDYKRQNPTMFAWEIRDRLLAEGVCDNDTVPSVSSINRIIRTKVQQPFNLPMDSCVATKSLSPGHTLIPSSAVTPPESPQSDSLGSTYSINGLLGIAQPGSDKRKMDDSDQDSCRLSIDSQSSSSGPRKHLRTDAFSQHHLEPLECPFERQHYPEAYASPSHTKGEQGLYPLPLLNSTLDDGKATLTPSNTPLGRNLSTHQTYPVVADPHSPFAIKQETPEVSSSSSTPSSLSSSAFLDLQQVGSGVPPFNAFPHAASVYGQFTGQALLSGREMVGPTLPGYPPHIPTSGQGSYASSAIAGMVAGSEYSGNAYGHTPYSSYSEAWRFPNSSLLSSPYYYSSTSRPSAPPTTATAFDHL

[10] = fluconazole-exposed Candida albicans growth modulators – fluorescence, retest, confirmation (AID 2467); type: functional, cell-based
[11] = nonselective StAR promoter luciferase inhibitors – cell-based, luminescence, luciferase reporter, counter-screen for LRH-1 inverse agonist project, dose response (AID 651969); type: functional
[12] = target: SWI/SNF-related matrix-associated actin-dependent regulator of chromatin subfamily A member 2 (Homo sapiens, UniProt P51531); assay: Luminescence-based cell-based high throughput dose response assay to identify activators of the function of SWI/SNF related, matrix associated, actin dependent regulator of chromatin, subfamily a, member 2 (SMARCA2, BRM).; type: functional
Sequence of SWI/SNF-related matrix-associated actin-dependent regulator of chromatin subfamily A member 2 (P51531 whole entry): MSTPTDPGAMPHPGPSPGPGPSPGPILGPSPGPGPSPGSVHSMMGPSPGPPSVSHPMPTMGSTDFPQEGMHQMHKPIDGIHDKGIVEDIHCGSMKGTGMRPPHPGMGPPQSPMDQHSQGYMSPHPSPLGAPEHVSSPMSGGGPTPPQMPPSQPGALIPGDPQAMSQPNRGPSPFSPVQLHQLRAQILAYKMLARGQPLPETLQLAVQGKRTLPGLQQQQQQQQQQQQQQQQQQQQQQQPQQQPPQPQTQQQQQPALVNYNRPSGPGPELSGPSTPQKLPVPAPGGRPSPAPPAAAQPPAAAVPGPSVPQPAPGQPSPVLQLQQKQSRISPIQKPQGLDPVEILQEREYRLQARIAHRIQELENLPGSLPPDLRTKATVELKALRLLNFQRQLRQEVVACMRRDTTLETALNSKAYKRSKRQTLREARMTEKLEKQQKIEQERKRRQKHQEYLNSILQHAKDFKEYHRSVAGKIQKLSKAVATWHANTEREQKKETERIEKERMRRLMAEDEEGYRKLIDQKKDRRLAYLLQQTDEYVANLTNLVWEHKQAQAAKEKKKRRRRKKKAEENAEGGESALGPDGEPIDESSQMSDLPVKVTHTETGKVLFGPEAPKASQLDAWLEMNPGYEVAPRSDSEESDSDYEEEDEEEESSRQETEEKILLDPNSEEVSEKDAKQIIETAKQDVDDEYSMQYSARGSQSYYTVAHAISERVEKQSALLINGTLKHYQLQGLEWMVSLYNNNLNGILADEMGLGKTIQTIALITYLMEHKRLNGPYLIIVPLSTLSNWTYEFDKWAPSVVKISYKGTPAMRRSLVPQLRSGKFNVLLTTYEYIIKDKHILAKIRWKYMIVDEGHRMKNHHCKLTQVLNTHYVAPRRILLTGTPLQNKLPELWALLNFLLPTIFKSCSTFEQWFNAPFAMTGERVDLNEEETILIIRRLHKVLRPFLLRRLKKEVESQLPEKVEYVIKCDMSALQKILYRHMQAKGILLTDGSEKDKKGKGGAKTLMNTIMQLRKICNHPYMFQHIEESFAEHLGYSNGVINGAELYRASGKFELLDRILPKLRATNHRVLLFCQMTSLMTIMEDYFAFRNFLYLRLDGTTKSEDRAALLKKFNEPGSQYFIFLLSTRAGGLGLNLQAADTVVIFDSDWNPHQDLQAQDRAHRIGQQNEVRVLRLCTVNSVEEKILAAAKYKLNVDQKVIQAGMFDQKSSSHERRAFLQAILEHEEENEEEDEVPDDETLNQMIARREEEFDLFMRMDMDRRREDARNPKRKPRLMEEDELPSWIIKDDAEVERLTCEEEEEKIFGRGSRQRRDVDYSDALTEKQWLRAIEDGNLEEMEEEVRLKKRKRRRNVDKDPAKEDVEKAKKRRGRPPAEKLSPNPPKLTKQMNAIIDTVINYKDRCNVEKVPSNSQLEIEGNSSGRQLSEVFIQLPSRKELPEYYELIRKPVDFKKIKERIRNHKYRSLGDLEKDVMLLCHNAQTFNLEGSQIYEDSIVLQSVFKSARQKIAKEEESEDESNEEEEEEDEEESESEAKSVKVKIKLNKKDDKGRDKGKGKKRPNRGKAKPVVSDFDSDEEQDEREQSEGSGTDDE

HEK293 [13] = assay: HEK293T cell viability loss, resazurin readout – resazurin fluorescence, cytotoxicity control for NF-kB activator project, SAR follow-up (AID 493251); type: functional, cell-based; conditions: Homo sapiens
[14] = target: Nuclear receptor subfamily 5 group A member 2 (Homo sapiens, UniProt O00482); type: functional, cell-based;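 note: HEK293T cells transfected with LRH-1 and a StAR promoter luciferase reporter; potency for inhibitors that lower LRH-1 driven reporter light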
Sequence of Nuclear receptor subfamily 5 group A member 2 (O00482 whole entry): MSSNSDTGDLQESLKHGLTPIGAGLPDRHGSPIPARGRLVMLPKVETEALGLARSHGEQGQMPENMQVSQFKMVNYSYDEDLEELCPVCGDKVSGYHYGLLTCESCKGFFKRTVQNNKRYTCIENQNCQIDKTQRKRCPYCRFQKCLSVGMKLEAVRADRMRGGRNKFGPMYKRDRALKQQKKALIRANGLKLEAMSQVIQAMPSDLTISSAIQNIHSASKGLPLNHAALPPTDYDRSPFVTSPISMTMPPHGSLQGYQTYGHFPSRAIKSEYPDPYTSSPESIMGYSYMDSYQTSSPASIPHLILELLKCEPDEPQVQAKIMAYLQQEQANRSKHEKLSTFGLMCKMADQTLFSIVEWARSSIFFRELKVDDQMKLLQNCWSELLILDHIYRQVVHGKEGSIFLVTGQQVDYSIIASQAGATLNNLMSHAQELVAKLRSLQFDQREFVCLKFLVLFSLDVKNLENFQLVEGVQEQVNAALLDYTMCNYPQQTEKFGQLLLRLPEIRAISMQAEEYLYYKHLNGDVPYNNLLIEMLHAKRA

T1 sequence (P25098 whole entry, the tested form may be a part): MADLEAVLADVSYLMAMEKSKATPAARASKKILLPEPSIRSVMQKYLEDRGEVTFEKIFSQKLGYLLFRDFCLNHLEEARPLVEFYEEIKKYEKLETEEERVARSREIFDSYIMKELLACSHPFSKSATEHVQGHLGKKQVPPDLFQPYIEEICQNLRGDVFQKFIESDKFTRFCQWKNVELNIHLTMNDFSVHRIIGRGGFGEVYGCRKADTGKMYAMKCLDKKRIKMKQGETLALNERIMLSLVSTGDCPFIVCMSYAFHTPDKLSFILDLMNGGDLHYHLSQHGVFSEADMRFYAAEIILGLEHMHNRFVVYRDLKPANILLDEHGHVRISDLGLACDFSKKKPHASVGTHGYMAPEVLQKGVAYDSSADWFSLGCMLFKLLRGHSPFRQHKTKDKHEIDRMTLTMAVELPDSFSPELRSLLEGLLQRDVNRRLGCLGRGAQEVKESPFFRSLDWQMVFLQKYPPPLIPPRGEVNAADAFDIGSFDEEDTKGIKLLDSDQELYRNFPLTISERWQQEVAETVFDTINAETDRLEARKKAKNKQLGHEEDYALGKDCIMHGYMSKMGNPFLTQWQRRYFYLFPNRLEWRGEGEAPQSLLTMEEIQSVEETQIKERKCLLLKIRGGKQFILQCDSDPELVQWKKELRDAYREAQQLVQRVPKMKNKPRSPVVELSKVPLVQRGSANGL

| EC50 [1] | IC50 [2] | EC50 [3] | SMILES | IC50 [4] | IC50 (HEK293 [5]) | IC50 (Steroidogenic factor 1) | EC50 [6] | IC50 (Jurkat) | AC50 [7] | IC50 [8] | EC50 [9] | AC50 (Paired box protein Pax-8) | EC50 [10] | IC50 [11] | EC50 [12] | IC50 (HEK293 [13]) | IC50 [14] |
| --- | --- | --- | --- | --- | --- | --- | --- | --- | --- | --- | --- | --- | --- | --- | --- | --- | --- |
| 58.3 µM (inactive) | 6.99 µM (active) | 6.25 µM (active) | CCc1cccc(NC(=O)CCS(=O)(=O)c2ccc(Br)cc2)c1 | – | – | – | – | – | – | – | – | – | – | – | – | – | – |
| – | – | – | Cc1cc(NC(=O)c2ccc([N+](=O)[O-])o2)ccc1NC(=O)c1ccco1 | 1.87 µM (active) | 27 µM (inactive) | 0.766 µM (active) | 4.78 µM (inconclusive) | 31.1 µM (inactive) | 7.8 µM (active) | 11.5 µM (not active) | > 91.2 µM (inactive) | 5.2 µM (active) | > 38 µM (not active) | 35.9 µM (inactive) | > 91.2 µM (inactive) | 42.4 µM (inactive) | 35.9 µM (inactive) |
